Laboratory results from patent publication US20110288036A1, “Methods for Treating or Preventing Vascular Graft Failure” (priority 2010, published 2011).

Assays:
[1] = tested on: THP-1 cells; assay: Cytokine ELISA in PMA/LPS-activated THP-1 cells; format: cell-based, human; settings: PMA then LPS
Description: The ability of MMI-0100 ([…]; SEQ ID NO: 1) to inhibit the production of inflammatory cytokines (TNF-α and IL-1β) in vitro was examined using THP-1 cells. Briefly, THP-1 cells were activated with PMA for 24 hours, and treated subsequently with 10 μg of LPS. The amount of inflammatory cytokines (TNF-α and IL-1β, pg/ml) produced in the medium in the presence or absence of increasing concentrations (1 μM, 3 μM, 10 μM, and 30 μM) of MMI-0100 ([…]; SEQ ID NO: 1) was determined by cytokine specific enzyme-linked immunosorbent assay (ELISA). Analysis of inflammatory cytokines (TNF-α and IL-1β) was performed with cytokine-specific ELISA kit (PeproTech, Inc., Rocky Hill, N.J.). The cytokine-specific ELISA employs highly-purified anti-cytokine antibodies (capture antibodies) that are noncovalently adsorbed (“coated”) onto plastic microwell plates. After washings, the immobilized antibodies capture specifically soluble cytokine proteins present in samples applied to the plate. After washing away unbound material, the captured cytokine proteins are detected by biotin-conjugated anti-cytokine antibodies (detection antibodies) followed by an enzyme-labeled avidin or streptavidin reporter. Following addition of a chromogenic (color-developing) substrate-containing solution, the level of colored product generated by the bound, enzyme-linked, detection reagents can be measured spectrophotometrically using an ELISA-plate reader at an appropriate optical density.
In order to prepare plates for ELISA, capture antibodies (anti-TNF-α or anti-IL-1β antibodies) were diluted with PBS to a concentration of 1 μg/ml. 100 μl of each diluted antibody was added immediately to each well of the ELISA plate. […]
The standard was diluted from 2 ng/ml to zero in diluent, and 100 μl of the standard or sample was added immediately to each well in triplicate and incubated at room temperature for at least 2 hours. […] The level of colored product generated by the bound, enzyme-linked, detection reagents was measured spectrophotometrically using an ELISA-plate reader at an appropriate optical density.

[2] = tested on: human endothelial cell (EC); assay: Phase contrast morphology, endothelial cells; format: cell-based; settings: 24 hours treatment, vs control cells
Description: In order to determine the effect of pharmacological doses of MMI-0100 ([…]; SEQ ID NO: 1) on human endothelial cell (EC) and smooth muscle cell (SMC) proliferation, human EC and SMC cultures were treated with three concentrations (0.25 mM, 0.5 mM, and 1 mM) of MMI-0100 ([…] (SEQ ID NO: 1)) following pre-treatment with TNF-α.

[3] = tested on: human saphenous vein (HSV); assay: Human saphenous vein organ culture model of intimal hyperplasia; format: cell-based; settings: for average intimal thickness: control 81.6±17.3, pre-culture 43.7±7.8
Description: De-identified, discarded segments of human saphenous vein (HSV) were collected from consented patients undergoing coronary artery or peripheral vascular bypass surgeries. HSV segments were stored in a saline solution until the end of the surgical procedure, at which time they were placed in cold transplant harvest buffer (100 mM potassium lactobionate, 25 mM KH2PO4, 5 mM MgSO4, 30 mM Raffinose, 5 mM Adenosine, 3 mM Glutathione, 1 mM Allopurinol, 50 g/L Hydroxyethyl starch, pH 7.4). The vessels were used within 24 hours of harvest. Using sterile technique, HSV segments were transferred to a 60-mm Petri dish under a sterile hood. The edges (0.5 mm) of each segment were removed with a blade and excess adventitial tissue and fat removed with minimal manipulation. HSV segments were cut into consecutive rings of approximately 1.0 mm in width to be utilized for organ culture or muscle bath experiments. Two rings from each segment were immediately fixed in 10% formalin at 37° C. for 30 min to obtain pre-culture intimal thickening measurements.
After viability was determined in the muscle bath, additional rings were cut and placed in 8-well chamber slides and maintained in RPMI 1640 medium supplemented with 30% FBS, 1% L-glutamine and 1% penicillin/streptomycin for 14 days at 37° C. in an atmosphere of 5% CO2 in air. The rings were either untreated or treated with 10 μM, 50 μM or 100 μM of MMI-0100 peptide ([…] (SEQ ID NO: 1)). The culture medium with treatments was replaced every 2-3 days.
After 14 days of organ culture, vein segments were fixed in 0.5 mL of 10% formalin at 37° C. for 30 minutes and embedded in paraffin for sectioning. Beginning at the mid-portion of each ring, 5 transverse sections, spaced 5 μm apart, were cut for each specimen. Sections were then stained with Verhoeff-van Gieson stain. Each section was examined using light microscopy (Carl Zeiss, Thornwood, N.Y.) and 6 radially parallel measurements of intimal and medial thickness were randomly taken from each section ([…]). Intima was defined as tissue on the luminal side of the internal elastic lamina or the chaotic organization of the cells contained within it, whereas the medial layer was contained between the intimal layer and the external elastic lamina. Intimal and medial thickening was measured for each section at 5× magnification with the microscope's computerized image analysis system.
To this end, rings of human saphenous vein (HSV) were cultured in RPMI medium supplemented with L-glutamine (1%), penicillin/streptomycin (1%), and fetal bovine serum (FBS) (30%) at 5% CO2 and 37° C. for 14 days.
The effect of MMI-0100 ([…]; SEQ ID NO: 1) on development of intimal hyperplasia was further examined in a follow-up study in which intimal thickness of HSV in an organ culture model was measured in the presence of high serum and different concentrations (10-100 μM) of MMI-0100 ([…]; SEQ ID NO: 1). HSV were cultured for 14 days in 30% serum. All veins were deemed viable at the time of culture by adequate contraction with a phenylephrine challenge in a muscle bath. The average intimal thickness of pre-cultured vein segments was 43.7±7.8 μm. After culture, the average intimal thickness of the control was 81.6±17.3 μm. The average intimal thickness in the presence of 50 μM and 100 μM MMI-0100 ([…]; SEQ ID NO: 1) was 42.7±6.0 μm and 50.4±10.7 μm, respectively, with a significant reduction in intimal thickness (FIGS. 10A and 11).

YARAAARQARAKALARQLGVAA [MMI-0100]
IL-1β level in the medium ([1]; 30 μM, PMA/LPS alone about 450 pg/ml): about 100 pg/ml | TNF-α level in the medium ([1]; 30 μM, PMA/LPS alone about 1000 pg/ml): about 300 pg/ml | production of pro-inflammatory cytokines (TNF-α and IL-1β) ([1]; 1, 3, 10 and 30 μM): inhibits the production of pro-inflammatory cytokines (i.e., TNF-α and IL-1β) in a dose-dependent manner | morphological changes of EC [2]: no obvious morphological changes | mean intimal thickness of HSV in culture ([3]; 5 μM or 10 μM, 14 days culture, in contrast to r-HSPB1): significantly reduced the mean intimal thickness | mean intimal thickness ([3]; 10 μM, 14 days culture): 14 μm | average intimal thickness ([3]; 50 μM, 14 days, 30% serum): 42.7±6.0 μm | intima:media (I:M) ratio ([3]; 100 μM, 14 days, 30% serum): greater reduction of the I:M ratio | average intimal thickness ([3]; 100 μM, 14 days, 30% serum): 50.4±10.7 μm
